Results on 12 compounds are retold here after patent US20110092505A1, “ORGANIC COMPOUNDS” (priority 2008, published 2011).

pIC50: −log10 of the molar value.

The assay has as its target T1, protein kinase D1 (PKD1) (Homo sapiens, UniProt Q15139).
T1 construct: This assay is performed with full length wild-type enzyme that is expressed and purified from Sf9 insect cells; made in house; host or cells: Sf9 insect cells
T1 sequence (Q15139 1-912): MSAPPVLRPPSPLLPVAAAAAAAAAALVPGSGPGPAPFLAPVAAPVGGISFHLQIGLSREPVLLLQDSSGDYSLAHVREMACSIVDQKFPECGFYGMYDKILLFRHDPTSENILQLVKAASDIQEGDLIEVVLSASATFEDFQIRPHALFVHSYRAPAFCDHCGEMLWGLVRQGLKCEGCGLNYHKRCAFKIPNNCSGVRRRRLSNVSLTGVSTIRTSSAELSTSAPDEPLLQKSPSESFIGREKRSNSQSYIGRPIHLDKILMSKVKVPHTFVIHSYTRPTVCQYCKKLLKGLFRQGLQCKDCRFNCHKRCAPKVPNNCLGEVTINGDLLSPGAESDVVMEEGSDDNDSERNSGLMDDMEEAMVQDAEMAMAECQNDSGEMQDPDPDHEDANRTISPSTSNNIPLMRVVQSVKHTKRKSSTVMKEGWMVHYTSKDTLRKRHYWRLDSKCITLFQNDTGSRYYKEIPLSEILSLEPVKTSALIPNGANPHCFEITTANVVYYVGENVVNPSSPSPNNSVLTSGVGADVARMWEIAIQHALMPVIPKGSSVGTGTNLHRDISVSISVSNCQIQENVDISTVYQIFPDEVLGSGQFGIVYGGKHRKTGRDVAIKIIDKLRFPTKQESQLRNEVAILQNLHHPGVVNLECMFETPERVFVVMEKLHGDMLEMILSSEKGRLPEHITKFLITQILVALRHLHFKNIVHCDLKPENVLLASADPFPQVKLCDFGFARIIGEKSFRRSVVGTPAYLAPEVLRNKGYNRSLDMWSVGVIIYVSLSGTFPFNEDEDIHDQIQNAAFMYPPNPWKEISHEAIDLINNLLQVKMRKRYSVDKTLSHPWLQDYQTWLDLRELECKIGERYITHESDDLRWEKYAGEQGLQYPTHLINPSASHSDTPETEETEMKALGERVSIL
Put plainly: PKD1 TR-FRET (LANCE) kinase assay. Format: biochemical. Conditions: full length wild-type enzyme, 20 μM ATP, syntide-2 substrate; read-out: Inhibitory Activity PKD1. The text has this: The assay to measure protein kinase D1 (PKD1) activity is a time-resolved fluorescence resonance transfer (TR-FRET) assay using PerkinElmer's LANCE™ technology. In this case, a biotinylated syntide-2 peptide is used as the substrate in this reaction. Phosphorylation of the syntide-2 substrate is detected by a specific antibody that recognizes the phosphorylated peptide. A second fluorophore, APC, is conjugated to streptavidin that binds the biotinylated syntide-2 peptide. […] Therefore, when the europium labeled secondary antibody binds on the phosphorylated peptide, it is brought into close contact with the APC and excites this fluorophore.
This assay is performed with full length wild-type enzyme that is expressed and purified from Sf9 insect cells. The reaction buffer consists of 35 mM Tris-HCl pH7.5, 5 mM MgCl2, 0.02% Tween-20, 20 μM ATP, 1 mM DTT and 0.2 μg/mL PKD1 enzyme. The enzyme reaction is initiated by the addition of 2 μM syntide-2 peptide substrate and the reaction carried out for 50 minutes at room temperature. The reaction is stopped by a stop/detection Buffer consisting of 50 mM EDTA, 0.18 mg/mL rabbit polyclonal anti-phospho Syntide-2 antibody, 0.5 nM europium labeled anti-rabbit IgG and 10 nM streptavidin conjugated APC. […] IC50 values are calculated using an Activity Base (IDBS) software program.
(TR-FRET usually uses a lanthanide donor and a delayed reading to cut background.)
With `NC(=O)c1cc(-c2ccnc(NCc3ccccc3Cl)c2)nc(N2CCNCC2)c1` [2′-(2-Chlorobenzylamino-6-piperazin-1-yl-[2,4′]bipyridinyl-4-carboxylic acid amide], the pIC50 is 7.60.
In the case of `NC(=O)c1cc(-c2ccnc(NC3CCCCC3)c2)nc(N2CCN3CCC[C@@H]3C2)c1` [2′-Cyclohexylamino-6-(R)-hexahydro-pyrrolo[1,2-a]pyrazin-2-yl-[2,4′]bipyridinyl-4-carboxylic acid amide], the pIC50 was 7.46.
For the compound `N#CCNC(=O)c1ccc(-c2ccnc(NC3CCCCC3)c2)nc1N1CCNCC1` [2′-Cyclohexylamino-6-piperazin-1-yl-[2,4′]bipyridinyl-5-carbonxylic acid cyanomethyl-amide], the pIC50 was 7.22.
`COC(=O)c1ccc(-c2ccnc(NC3CCCCC3)c2)nc1N1CCNCC1` [2′-Cyclohexylamino-6-piperazin-1-yl-[2,4′]bipyridinyl-5-carboxylic acid methyl ester]: the pIC50 was 7.08.
As for `NC(=O)c1cc(-c2ccnc(NCCc3ccc(O)cc3)c2)nc(N2CCNCC2)c1` [2′-[2-(4-Hydroxyphenyl)ethylamino]-6-piperazin-1-yl-[2,4′]bipyridinyl-4-carboxylic acid amide], the pIC50 is 8.70.
As to `O=C1NCc2c1cc(-c1ccnc(NC3CCCCC3)c1)nc2N1CCn2cnnc2C1` [6-(2-Cyclohexylamino-pyridin-4yl)-4-(5,6-dihydro-8H-[1,2,4]triazolo[4,3-a]pyrazin-7-yl)-2,3-dihydro-pyrrolo[3,4-c]pyridin-1-one], the pIC50 was 7.25.
The figure for `c1cc(-c2cc(-c3nnco3)cc(N3CCNCC3)n2)cc(NC2CCCCC2)n1` [Cyclohexyl-(4-[1,3,4]oxadiazol-2-yl-6-piperazin-1-yl-[2,4′]bipyridinyl-2′-yl)-amine] is 7.92; for `CS(=O)(=O)c1cc(-c2ccnc(NC3CCCCC3)c2)nc(N2CCNCC2)c1` [Cyclohexyl-(4-methanesulfonyl-6-piperazin-1-yl-[2,4′]bipyridinyl-2′-yl)-amine] it is 7.20; for `O=[N+]([O-])c1cc(-c2ccnc(NC3CCCCC3)c2)nc(N2CCNCC2)c1` [Cyclohexyl-(4-nitro-6-piperazin-1-yl-[2,4′]bipyridinyl-2′-yl)-amine] it is 8.40.
The figure for `FC(F)(F)c1cc(-c2ccnc(NC3CCCCC3)c2)nc(N2CCNCC2)c1` [Cyclohexyl-(6-piperazin-1-yl-4-trifluoromethyl-[2,4′]bipyridinyl-2′-yl)amine] is 7.70; for `Nc1cc(-c2ccnc(NC3CCCCC3)c2)nc(N2CCNCC2)c1` [N*2′*-Cyclohexyl-6-piperazin-1-yl-[2,4′]bipyridinyl-4,2′-diamine] it is 8.00; for `Fc1ccc(Nc2cc(-c3ccnc(NC4CCCCC4)c3)nc(N3CCNCC3)c2)cc1` [N*2′*-Cyclohexyl-N*4*-(4-fluoro-phenyl)-6-piperazin-1-yl-[2,4′]bipyridinyl-4,2′-diamine] it is 6.74.
